According to patent US11866431B2, “Bicyclic compounds” (Vivace Therapeutics, Inc., priority 2018, dated 2024):

System: 8XTBD luciferase reporter (YAP reporter) in HEK293T cells
Assay: YAP Reporter Assay
Assay type: cell-based
Details: Homo sapiens, HEK-293T; HEK293T cells stably transfected with 8XTBD luciferase reporter and pRLTK; 24-hr incubation; top concentration 3 μM; read-out: Firefly Luciferase IC50
Outline: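 Dual-luciferase read-out after 24 h compound exposure at 37° C, 5% CO2; IC50 and maximum inhibition given separately for 8XTBD-firefly and TK-renilla signals. Stable HEK293T reporter cells, 3×10^3/well, received 10-point 1:3 series starting 3 μM final, in quadruplicate.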

Structure (SMILES)	IC50
C[C@@H](NC(=O)c1ccc2c(-c3ccc(C(F)(F)F)cc3)cccc2c1)C1CN(CCF)C1 [Compound 144, (R)—N-(1-(1-(2-fluoroethyl)azetidin-3-yl)ethyl)-5-(4-(trifluoromethyl)phenyl)-2-naphthamide]	100 to 1000 nM
C[C@H](NC(=O)c1ccc2c(-c3ccc(C(F)(F)F)cc3)cccc2c1)c1cccc(N(C)C)n1 [Compound 287, (S)—N-(1-(6-(dimethylamino)pyridin-2-yl)ethyl)-5-(4-(trifluoromethyl)phenyl)-2-naphthamide]	100 to 1000 nM
COC[C@H](C)NC(=O)c1cnc2c(-c3ccc(C(F)(F)F)cc3)cccc2c1 [Compound 102, (S)—N-(1-methoxypropan-2-yl)-8-(4-(trifluoromethyl)phenyl)quinoline-3-carboxamide]	< 100 nM
O=C(O)c1ccc2c(-c3ccc(C(F)(F)F)s3)cccc2c1 [Compound 332, 5-[5-(trifluoromethyl)-2-thienyl]naphthalene-2-carboxylic acid]	< 100 nM
O=C(NCCSSCCNC(=O)c1ccc2c(-c3ccc(C(F)(F)F)cc3)cccc2c1)c1ccc2c(-c3ccc(C(F)(F)F)cc3)cccc2c1 [Compound 115, N,N′-(disulfanediylbis(ethane-2,1-diyl))bis(5-(4-(trifluoromethyl)phenyl)-2-naphthamide)]	1000 to 3000 nM
CC(C)NC(=O)c1ccc2c(-c3ccc(C(F)(F)F)cc3)nccc2c1 [Compound 11, N-isopropyl-1-[4-(trifluoromethyl)phenyl]isoquinoline-6-carboxamide]	< 100 nM
CCOc1cc(-c2ccc(C(F)(F)F)cc2)c2ncc(C(=O)O)cc2c1 [Compound 327, 6-ethoxy-8-(4-(trifluoromethyl)phenyl)quinoline-3-carboxylic Acid]	< 100 nM
COC[C@@H](C)NC(=O)c1cnc2c(-c3ccc(C(F)(F)F)cc3)cc(OC)cc2c1 [Compound 107, 6-methoxy-N-[(1R)-2-methoxy-1-methyl-ethyl]-8-[4-(trifluoromethyl)phenyl]quinoline-3-carboxamide]	< 100 nM
Cc1cc(-c2ccc(C(F)(F)F)cc2)c2ccc(C(=O)NC(C)C)cc2c1 [Compound 41, N-isopropyl-7-methyl-5-(4-(trifluoromethyl)phenyl)-2-naphthamide]	< 100 nM
CNCC(C)NC(=O)c1ccc2c(-c3ccc(C(F)(F)F)cc3)cccc2c1 (stereo not shown) [Compound 92, N-(1-(methylamino)propan-2-yl)-5-(4-(trifluoromethyl)phenyl)-2-naphthamide]	100 to 1000 nM
C[C@@H](NC(=O)c1cnc2c(-c3ccc(C(F)(F)F)cc3)cccc2c1)C1CNC1 [Compound 158, N-[(1R)-1-(Azetidin-3-yl)ethyl]-8-[4-(trifluoromethyl)phenyl]quinoline-3-carboxamide]	100 to 1000 nM
COC(=O)c1ccc2c(-c3ccc(C(F)(F)F)cc3)nccc2c1 [Compound 9, Methyl 1-[4-(trifluoromethyl)phenyl]isoquinoline-6-carboxylate]	100 to 1000 nM
O=C(O)c1ccc2c(-c3ccc(C(F)(F)F)cc3)cccc2c1O [Compound 335, 1-hydroxy-5-(4-(trifluoromethyl)phenyl)-2-naphthoic Acid]	< 100 nM
O=C(O)c1cnc2c(-c3ccc(C(F)(F)F)cc3)cc(OC(F)(F)F)cc2c1 [Compound 324, 6-(Trifluoromethoxy)-8-[4-(trifluoromethyl)phenyl]quinoline-3-carboxylic acid]	< 100 nM
N#CC(O)CCCCNC(=O)c1ccc2c(-c3ccc(C(F)(F)F)cc3)cccc2c1 (stereo not shown) [Compound 231, N-(5-cyano-5-hydroxy-pentyl)-5-[4-(trifluoromethyl)phenyl]naphthalene-2-carboxamide]	100 to 1000 nM
CC(C)NC(=O)c1ccc2c(-c3ccc(C(F)(F)F)cc3)ccc(NS(C)(=O)=O)c2c1 [Compound 23, N-isopropyl-8-(methylsulfonamido)-5-(4-(trifluoromethyl)phenyl)-2-naphthamide]	< 100 nM
